Assays:
[1] = tested on: HEK-Blue IL-2 reporter cells, IL-2-stimulated STAT5 SEAP reporter; assay: HEK-Blue IL-2 reporter assay (SEAP) for determining selectivity; format: cell-based; conditions: 4 ng/mL human recombinant IL-2, SEAP readout, read-out: IL-2 (SEAP selectivity, IC50 class)
Experimental: (§1) HEK-Blue™ IL-2 and IFNγ reporter cells with a stably-integrated cytokine receptor and STAT5 or STAT1 express STAT-inducible secreted embryonic alkaline phosphatase (SEAP) reporter gene upon cytokine stimulation. These cells were plated in DMEM (Gibco) containing 10% heat-inactivated FBS (Gibco) and 100 U/mL PenStrep (Gibco) at 37° C. under 5% CO2 conditions for 20-22 hours. The cells were then pretreated with serially diluted test compounds for 60 min prior to stimulation with either 4 ng/mL human recombinant IL-2 (Miltenyl Biotech) or 50 ng/mL human recombinant IFNγ (InvivoGen) for 24 hours. SEAP induction was measured using the QUANTI-Blue™ Solution (InvivoGen) according to the manufacturer's instructions.

[2] = tested on: HEK-Blue IFNγ reporter cells, IFNγ-stimulated STAT1 SEAP reporter; assay: HEK-Blue IFNγ reporter assay (SEAP) for determining selectivity; format: cell-based; conditions: Homo sapiens, 50 ng/mL human recombinant IFNγ, SEAP readout, read-out: IFN-γ (SEAP selectivity, IC50 class)
Experimental: as §1

SMILES	IC50 [1] [nM]	IC50 [2] [nM]
[2H]C([2H])([2H])NC(=O)c1nnc(NC(=O)C2CC2)cc1Nc1nccc2c1N(C)[C@H](C([2H])([2H])[2H])c1nn(C)nc1-2 [Compound 114, (R)-6-(cyclopropanecarboxamido)-4-((2,5-dimethyl-4-(methyl-d3)-4,5-dihydro-2H-[1,2,3]triazolo[4,5-c][1,7]naphthyridin-6-yl)amino)-N-(methyl-d3)pyridazine-3-carboxamide]	> 1000	
[2H]C([2H])([2H])NC(=O)c1nnc(NC(=O)C2CC2)cc1Nc1nccc2c1N(C)[C@@H](C)c1nc(C)nn1-2 [Compound 112, (S)-6-(cyclopropanecarboxamido)-N-(methyl-d3)-4-((2,4,5-trimethyl-4,5-dihydropyrido[3,4-e][1,2,4]triazolo[1,5-a]pyrazin-6-yl)amino)pyridazine-3-carboxamide]	> 1000	> 1000
[2H]C([2H])([2H])NC(=O)c1nnc(NC(=O)[C@H]2C[C@H]2F)cc1Nc1nccc2c1N(C)Cc1nn(C)nc1-2 [Compound 115, 4-((2,5-dimethyl-4,5-dihydro-2H-[1,2,3]triazolo[4,5-c][1,7]naphthyridin-6-yl)amino)-6-((1R,2R)-2-fluorocyclopropane-1-carboxamido)-N-(methyl-d3)pyridazine-3-carboxamide]	300 to 1000	30 to 300

— patent publication US12103937B2, “Substituted pyridines and pyridazines as TYK2 inhibitors” (Sudo Biosciences Limited, priority 2021, dated 2024)
